Series [1] deals with Mycobacterium tuberculosis H37Rv (ATCC 27294). Put plainly: Microplate Alamar Blue Assay (MABA) in BACTEC 12B medium (TAACF screen). The format is cell-based. The settings on record: for IC50: read-out: IC50.
Setting [2] is: read-out: anti-TB active compound (MIC90 less than 10 μg/mL), classification.

Molecules are shown by their SMILES. Values after ≈ are worked out from the molar mass of the structure shown. Where two headings read alike, the source gives them in different places. Bounds are passed on as bounds.

`CCCCC1C=Cc2c3c(c4oc(=O)cc(CCC)c4c2O1)C(=O)CC(C)O3` (stereo not shown) displayed a melting point of 138 to 139 °C.

For `CCCc1c(Cl)c(=O)oc2c3c(c4c(c12)OC(CCC)C=C4)OC(C)CC3=O` (stereo not shown), the melting point is 140 to 142 °C.

As to `CC1CC(=O)c2c(c3c(c4c(CCl)cc(=O)oc24)OC(C)(C)C=C3)O1` (stereo not shown), the melting point is 132 to 134 °C.

Regarding `CCCc1cc(=O)oc2c3c(c4c(c12)OC(C)(C)C=C4)OC(CN1CCCC1)CC3=O` (stereo not shown), the melting point was in the range of 148 to 149 °C.

For `C/C=C/C1C=Cc2c3c(c4oc(=O)cc(CCC(F)(F)F)c4c2O1)C(=O)CC(C)O3` (stereo not shown), the melting point lay in the range of 147 to 149 °C.

`CCc1cc(=O)oc2c3c(c4c(c12)OCC(C)=C4)OC(C)CC3=O` (stereo not shown) yielded a melting point of 121 to 123 °C.

With `CCCc1cc(=O)oc2c3c(c4c(c12)OCC(C)=C4)OC(C)CC3=O` (stereo not shown), the melting point is 127 to 128 °C.

Turning to `NCC[C@H](O)C(=O)N[C@@H]1C[C@H](N)[C@@H](O[C@H]2O[C@H](CN)[C@@H](O)[C@H](O)[C@H]2O)[C@H](O)[C@H]1O[C@H]1O[C@H](CO)[C@@H](O)[C@H](N)[C@H]1O` [Amikacin, reference compound], the MIC50 in series [1] (control compound) came to 0.09 µg/mL (≈ 0.154 µM). In addition, the MIC90 in series [1] (control compound, read-out: Avg MIC90) was determined as 0.12 µg/mL (≈ 0.205 µM).

As to `Cc1c(Cl)c(=O)oc2c3c(c4c(c12)OC(C)(C)C=C4)OC(C)CC3=O` (stereo not shown) [Example 3], in series [1] (MABA, H37Rv), the IC50 stood at 33.4 µg/mL (≈ 92.5 µM). The MIC90 in series [1] (MABA, H37Rv, read-out: MIC90) is more than 100 µg/mL.

As to `Cc1c(Cc2ccccc2)c(=O)oc2c3c(c4c(c12)OC(C)(C)C=C4)OC(C)CC3=O` (stereo not shown) [Example 4], the IC50 in series [1] (MABA, H37Rv) worked out at 7.52 µg/mL (≈ 18 µM). The MIC90 in series [1] (MABA, H37Rv, read-out: MIC90) was more than 100 µg/mL.

As for `CCCc1cc(=O)oc2c1c(O)cc1occc(=O)c12` [Example 5a-13, 5-hydroxyl-4-n-propyl-benzo[2,3-f]-pyranyl-2,10-dione], the IC50 in series [1] (MABA, H37Rv) came out at 46.7 µg/mL (≈ 172 µM). The MIC90 in series [1] (MABA, H37Rv, read-out: MIC90) was found to be 53.4 µg/mL (≈ 196 µM).

For `CCCc1cc(=O)oc2c3c(cc(O)c12)OC(CCC)CC3=O` (stereo not shown) [Example 5a-14, benzo[1,2-b:3,4-b′]-dipyranyl-5-hydroxyl-4,8-di-n-propyl-2,10-dione], the IC50 in series [1] (MABA, H37Rv) was 60.2 µg/mL (≈ 190 µM). In addition, the MIC90 in series [1] (MABA, H37Rv, read-out: MIC90) came out at 85.8 µg/mL (≈ 271 µM).

Regarding `CCCCCC1CC(=O)c2c(cc(O)c3c(CCC)cc(=O)oc23)O1` (stereo not shown) [Example 5a-15], the IC50 in series [1] (MABA, H37Rv) was determined as 66 µg/mL (≈ 192 µM). Further, in series [1] (MABA, H37Rv, read-out: MIC90), the MIC90 was more than 100 µg/mL.

`CCCc1cc(=O)oc2c3c(cc(O)c12)OC(c1ccccc1)CC3=O` (stereo not shown) [Example 5a-16, benzo[1,2-b:3,4-b′]-dipyranyl-5-hydroxyl-8-phenyl-2,10-dione]: in series [1] (MABA, H37Rv), the IC50 stood at 22.5 µg/mL (≈ 64.2 µM). Besides, the MIC90 in series [1] (MABA, H37Rv, read-out: MIC90) stood at 25.1 µg/mL (≈ 71.7 µM).

Regarding `CCCc1cc(=O)oc2c3c(cc(O)c12)O[C@@H]1CCCC[C@@H]1C3=O` [Example 5a-19, benzo[1,2-b:3,4-b′]-dipyranyl-5-hydroxyl-8,9-cis-cyclohexyl-2,10-dione], in series [1] (MABA, H37Rv), the IC50 came to 83.1 µg/mL (≈ 253 µM). Moreover, the MIC90 in series [1] (MABA, H37Rv, read-out: MIC90) was more than 100 µg/mL.

Turning to `CCCc1c(Cl)c(=O)oc2c3c(cc(O)c12)OC(C)CC3=O` (stereo not shown) [Example 5a-20, benzo[1,2-b:3,4-b′]-dipyranyl-5-hydroxyl-8-methyl-3-chloro-4-n-propyl-2,10-dione], the IC50 in series [1] (MABA, H37Rv) worked out at 26.9 µg/mL (≈ 83.5 µM). The MIC90 in series [1] (MABA, H37Rv, read-out: MIC90) is 42 µg/mL (≈ 130 µM).

For `CC1CC(=O)c2c(cc(O)c3c4c(c(=O)oc23)CCCC4)O1` (stereo not shown) [Example 5a-27, benzo[1,2-b:3,4-b′]-dipyranyl-5-hydroxyl-8-methyl-3,4-cyclohexyl-2,0-dione], the IC50 in series [1] (MABA, H37Rv) is 94.3 µg/mL (≈ 314 µM). In addition, the MIC90 in series [1] (MABA, H37Rv, read-out: MIC90) is more than 100 µg/mL.

Consider `CCCc1c(F)c(=O)oc2c3c(cc(O)c12)OC(C)CC3=O` (stereo not shown) [Example 5a-31, benzo[1,2-b:3,4-b′]-dipyranyl-5-hydroxyl-8-methyl-3-fluoro-4-n-propyl-2,10-dione], for which the IC50 in series [1] (MABA, H37Rv) came to 17 µg/mL (≈ 55.5 µM). The MIC90 in series [1] (MABA, H37Rv, read-out: MIC90) came to 23.5 µg/mL (≈ 76.6 µM).

On to `CC1CC(=O)c2c(cc(O)c3c(CCC(F)(F)F)cc(=O)oc23)O1` (stereo not shown) [Example 5a-71, benzo[1,2-b:3,4-b′]-dipyranyl-5-hydroxyl-8-methyl-4-((3,3′,3″-trifluoro)-n-propyl)-2,10-dione], for which the IC50 in series [1] (MABA, H37Rv) amounted to 15.4 µg/mL (≈ 45.1 µM). The MIC90 in series [1] (MABA, H37Rv, read-out: MIC90) is 29.9 µg/mL (≈ 87.4 µM).

On to `CCCc1cc(=O)oc2c3c(cc(OS(=O)(=O)c4ccc(C)cc4)c12)OC(C)CC3=O` (stereo not shown) [Example 5a-101, 5-(p-tolyl)sulfonyloxy-8-methyl-4-n-propyl-2H-benzo[2,3-f]dipyranyl-2,10-dione], for which the IC50 in series [1] (MABA, H37Rv) is 4.2 µg/mL (≈ 9.49 µM). Moreover, the MIC90 in series [1] (MABA, H37Rv, read-out: MIC90) is 6.66 µg/mL (≈ 15.1 µM); in series [1] (setting [2]), less than 10 µg/mL.

For the compound `CCCc1cc(=S)oc2c3c(cc(OS(=O)(=O)c4ccc(C)cc4)c12)OC(C)CC3=O` (stereo not shown) [Example 5a-102, 5-(p-tolyl)sulfonyloxy-8-methyl-4-n-propyl-2-thio-2H-benzo[2,3-f]dipyranyl-2,10-dione], the IC50 in series [1] (MABA, H37Rv) was found to be 5.48 µg/mL (≈ 12 µM). Moreover, the MIC90 in series [1] (MABA, H37Rv, read-out: MIC90) was 6.24 µg/mL (≈ 13.6 µM); in series [1] (setting [2]) it was less than 10 µg/mL.

As for `Cc1cc(=O)oc2cc3c(c(O)c12)C(=O)CC(C)O3` (stereo not shown) [Example 5b-1, benzo[1,2-b:3,4-b′]-dipyranyl-5-hydroxyl-4,8-dimethyl-2,6-dione], the IC50 in series [1] (MABA, H37Rv) came out at 43.1 µg/mL (≈ 165 µM). Besides, in series [1] (MABA, H37Rv, read-out: MIC90), the MIC90 is more than 100 µg/mL.

Take `Cc1c(Cl)c(=O)oc2cc3c(c(O)c12)C(=O)CC(C)O3` (stereo not shown) [Example 5b-3, benzo[1,2-b:3,4-b′]-dipyranyl-5-hydroxyl-4,8-dimethyl-3-chloro-2,6-dione]: the IC50 in series [1] (MABA, H37Rv) was determined as 90.5 µg/mL (≈ 307 µM). Also, in series [1] (MABA, H37Rv, read-out: MIC90), the MIC90 was more than 100 µg/mL.

Regarding `CCCc1cc(=O)oc2cc3c(c(O)c12)C(=O)CC(C)O3` (stereo not shown) [Example 5b-11, benzo[1,2-b:3,4-b′]-dipyranyl-5-hydroxyl-4-n-propyl-8-methyl-2,6-dione], the IC50 in series [1] (MABA, H37Rv) came to 95.3 µg/mL (≈ 330 µM). The MIC90 in series [1] (MABA, H37Rv, read-out: MIC90) was more than 100 µg/mL.

For the compound `CCCc1cc(=O)oc2cc3c(c(O)c12)C(=O)CC(CCC)O3` (stereo not shown) [Example 5b-14, benzo[1,2-b:3,4-b′]-dipyranyl-5-hydroxyl-4,8-di-n-propyl-2,6-dione], the IC50 in series [1] (MABA, H37Rv) came out at 6.59 µg/mL (≈ 20.8 µM). Moreover, the MIC90 in series [1] (MABA, H37Rv, read-out: MIC90) is more than 100 µg/mL.

For the compound `CCCc1cc(=O)oc2cc3c(c(O)c12)C(=O)CC(c1ccccc1)O3` (stereo not shown) [Example 5b-16, benzo[1,2-b:3,4-b′]-dipyranyl-5-hydroxyl-8-phenyl-2,6-dione], the IC50 in series [1] (MABA, H37Rv) came out at 4.31 µg/mL (≈ 12.3 µM). In addition, the MIC90 in series [1] (MABA, H37Rv, read-out: MIC90) is 5.41 µg/mL (≈ 15.4 µM); in series [1] (setting [2]), less than 10 µg/mL.

As for `CC1CC(=O)c2c(cc3oc(=O)cc(-c4ccccc4)c3c2O)O1` (stereo not shown) [Example 5b-21, benzo[1,2-b:5,4-b′]-dipyranyl-5-hydroxyl-8-methyl-4-phenyl-2,6-dione], the IC50 in series [1] (MABA, H37Rv) amounted to 14.9 µg/mL (≈ 46.1 µM). The MIC90 in series [1] (MABA, H37Rv, read-out: MIC90) is 21.3 µg/mL (≈ 66.1 µM).

Turning to `O=c1oc2cc(O)cc(O)c2c2c1CCC2` [Example 6-26, 3,4-cyclopentyl-5,7-dihydroxy-coumarin], in series [1] (MABA, H37Rv), the IC50 was determined as 9.97 µg/mL (≈ 45.7 µM). In series [1] (MABA, H37Rv, read-out: MIC90), the MIC90 is 24.4 µg/mL (≈ 112 µM).

For the compound `CCCCc1cc(=O)oc2cc(O)cc(O)c12` [Example 6-36, 4-n-butyl-5,7-dihydroxy-coumarin], the IC50 in series [1] (MABA, H37Rv) worked out at 11.3 µg/mL (≈ 48.4 µM). For the same compound, the MIC90 in series [1] (MABA, H37Rv, read-out: MIC90) was determined as 14.4 µg/mL (≈ 61.6 µM).

For the compound `O=c1cc(CCC(F)(F)F)c2c(O)cc(O)cc2o1` [Example 6-71, 4-(3,3′,3″-trifluoro)-n-propyl-5,7-dihydroxy-coumarin], the IC50 in series [1] (MABA, H37Rv) was determined as 2.53 µg/mL (≈ 9.21 µM). The MIC90 in series [1] (MABA, H37Rv, read-out: MIC90) was 4.06 µg/mL (≈ 14.8 µM); in series [1] (setting [2]), less than 10 µg/mL.

For the compound `CC1CC(=O)c2c(c3c(c4c(-c5ccccc5)cc(=O)oc24)OC(C)(C)C=C3)O1` (stereo not shown) [Example 21], the IC50 in series [1] (MABA, H37Rv) was found to be 16.6 µg/mL (≈ 42.8 µM). The MIC90 in series [1] (MABA, H37Rv, read-out: MIC90) is more than 100 µg/mL.

On to `CCCCc1cc(=O)oc2c3c(c4c(c12)OC(C)(C)C=C4)OC(C)CC3=O` (stereo not shown) [Example 36], for which the concentration for half-maximal inhibition (IC50) in series [1] (MABA, H37Rv) is 24.2 µg/mL (≈ 65.8 µM). Moreover, in series [1] (MABA, H37Rv, read-out: MIC90), the MIC90 was found to be 36.6 µg/mL (≈ 99.3 µM).

The term melting point denotes the temperature, or range, at which the solid turns liquid. As usually defined, the MIC50 is the lowest concentration that inhibits either 50% of growth or 50% of the strains tested, depending on the study. A higher MIC50 goes with lower susceptibility. One may read the IC50 as the concentration that inhibits the measured activity by half.

For the origin of these results see patent publication US20100324067A1, “TETRACYCLIC DIPYRANO-COUMARIN COMPOUNDS WITH ANTI-HIV AND ANTI-MYCOBACTERIUM TUBERCULOSIS ACTIVITIES” (priority 2007, published 2010).
